Laboratory results: US9173836B2, “Pharmaceutical preparations for treatments of diseases and disorders of the breast” (FemmeParma Holding Company, Inc., priority 2003, dated 2015)
Read-outs that look alike come from different tables or passages of the source. Marks after values point to notes of the source that are not given here.

Legend:
[1] = test system: women treated for cyclical mastalgia; conditions: in vivo; cited from earlier work
in vitro = conditions: for recovery at 48 h, 100 µM: % Recovery
Experimental: Dermatomed human abdominal skin was obtained from Asterand Inc. (Detroit, Mich.). The donor was a person. […] After thawing at room temperature, the skin was soaked in saline for 30 minutes, and then cut to the appropriate size (approximately 4 cm^2) necessary. Excess moisture and saline were wiped off. The tissue was immediately transferred to the Franz-cell diffusion chamber and clamped between the donor and receiver chambers. The exposed surface area of the Franz-cell diffusion chamber was 1.77 cm^2. The receiver compartment was filled with 8 mL KRB buffer. The reservoir also contained a stirring bar to mix the reservoir contents. […] The temperature was set to maintain the tissue surface at 32° C.
Samples (1.0 mL) were taken from the receiver compartment at 0, 2, 4, 8, 24, and 48 hours for formulation assays and the control assay. After taking samples, an equal volume of receiver KRB buffer was added back to replace the buffer removed. For the control assay, 200 μl of dosing solution (prior to 0 hours) was taken from the container and 200 μl of 0 and 48 hours samples were taken from the donor side of the chamber.
The liquid chromatography phase was carried out using a Keystone Hypersil BDC C12 30×2.0 mm i.d., 3 μm, with guard column and 25 mM ammonium formate buffer (pH 3.5), where Aqueous Reservoir (A) was 90% water, 10% buffer, and Organic Reservoir (B) was 90% acetonitrile, 10% buffer. A flow rate of 300 μL/minute was applied to a gradient program of 0.0 min: 100% A, 0% B; 1.5 min: 0% A, 100% B; 2.0 min: 0% A, 100% B; 2.1 min: 100% A, 0% B; 3.5 min: 100% A, 0% B; for a total run time of 3.5 minutes (Autosampler: 30 μL injection volume; Autosampler Wash: water/acetonitrile/2-propanol:1/1/1; with 0.2% formic acid). Mass spectroscopy was carried out using a PE SCIEX API 3000 (interface: turbo ionspray; mode: multiple reaction monitoring; method: 3.5 minute duration).
The following calculations were performed: Flux=d[(Cr×Vr)/A]/dt

[2] = format: in vitro ADME; conditions: 10 μg/ml, pH 7.4
Experimental: The concentration in the apparatus was determined after 0 and 180 minutes of incubation to mimic a skin permeation experiment. […] The experiment was done in triplicate.

[3] = Formulations 1 and 2

**Q.** For CC(C)C[C@H]1C(=O)N2CCC[C@H]2[C@]2(O)O[C@](NC(=O)[C@@H]3C=C4c5cccc6[nH]c(Br)c(c56)C[C@H]4N(C)C3)(C(C)C)C(=O)N12 [Bromocriptine], which “Women complaining of more severe side effects” value [1] is on record?
**A.** The value was 10%.

**Q.** What about the “Women reporting mild side effects (nausea, dizziness, headaches, irritability)” value [1] of the same compound?
**A.** Its value is 30%.

**Q.** Which “Dosing solution concentration, Mean ± S.D.” value (in vitro; 100 μM) does the source give for Cn1c(=O)c2c(ncn2C)n(C)c1=O [Caffeine, caffeine] here?
**A.** Its value is 108.7 ± 1.5 µM.

**Q.** And the “Cumulative Receiver Concentration” value (in vitro; female, human, 0 h, 100 μM)?
**A.** The value was 0* μM.

**Q.** What about the “Cumulative Receiver Concentration, Mean ± S.D.” value (in vitro; female, human, 0 h, 100 μM) of the same compound?
**A.** The value was 0 ± 0 µM.

**Q.** And the “Donor concentration, Mean ± S.D.” value (in vitro; female, human, 0 h, 100 μM)?
**A.** The value was 102.7 ± 0.6 µM.

**Q.** What about the “Cumulative Receiver Concentration, Mean ± S.D.” value (in vitro; female, human, 2 h, 100 μM) of the same compound?
**A.** Its value is 0.009 ± 0.015 µM.

**Q.** And the “Cumulative Receiver Concentration, Mean ± S.D.” value (in vitro; female, human, 4 h, 100 μM)?
**A.** Its value is 0.018 ± 0.030 µM.

**Q.** And the “Cumulative Receiver Concentration, Mean ± S.D.” value (in vitro; female, human, 8 h, 100 μM)?
**A.** The value was 0.050 ± 0.075 µM.

**Q.** What about the “Cumulative Receiver Concentration, Mean ± S.D.” value (in vitro; female, human, 24 h, 100 μM) of the same compound?
**A.** Its value is 0.196 ± 0.254 µM.

**Q.** And the “Cumulative Receiver Concentration, Mean ± S.D.” value (in vitro; female, human, 48 h, 100 μM)?
**A.** Its value is 0.390 ± 0.469 µM.

**Q.** And the “Donor concentration, Mean ± S.D.” value (in vitro; female, human, 48 h, 100 μM)?
**A.** Its value is 102.4 ± 11.2 µM.

**Q.** What about the recovery at 48 h, 100 µM (in vitro; female, human) of the same compound?
**A.** The recovery at 48 h, 100 µM was 104%.

**Q.** And the recovery at 48 h, 100 µM (in vitro; female, human, Mean ± S.D.)?
**A.** The recovery at 48 h, 100 µM was 95.6 ± 8.7%.

**Q.** Which results are given for C#C[C@]1(O)CC[C@H]2[C@@H]3CCC4=Cc5oncc5C[C@]4(C)[C@H]3CC[C@@]21C [Danazol, danazol]?
**A.** Average Measured Concentration ± STD (N = 3) ([2]; 0 min): 8.9 ± 0.3 µg/mL; Average Measured Concentration ± STD (N = 3) ([2]; 180 min): 8.5 ± 0.3 µg/mL

**Q.** With lucifer yellow as the compound, how does the “% Recovery, Mean ± S.D.” value (in vitro) read?
**A.** The value was 85.3 ± 5.4%.

**Q.** And the Papp (in vitro)?
**A.** The Papp was 0 ×10⁻⁶ cm/s.

**Q.** What about the “Papp, Mean ± S.D.” value (in vitro) of the same compound?
**A.** The value was 0 ± 0 ×10^−6 cm/s.

**Q.** What about the “Tissue integrity marker in receiver buffer” value (in vitro) of the same compound?
**A.** Its value is “below lower limit of quantification (LLOQ) in all receiver buffer”.

**Q.** What about the “Lucifer yellow permeation (membrane integrity)” value [3] of the same compound?
**A.** Its value is “no permeation of Lucifer yellow detectable until after 8 or 24 hours of incubation”.
